The results in this text go back to ChEMBL document CHEMBL4251580, “Exploiting polypharmacology for improving therapeutic outcome of kinase inhibitors (KIs): An update of recent medicinal chemistry efforts” (Eur J Med Chem, 2018).

Structures are written as SMILES.

What is called IC50 is the concentration that inhibits the measured activity by half. Low readings indicate higher potency, high ones lower potency. By GI50 is commonly meant the concentration at which growth is held to half of that of the control. A lower GI50 goes with more potent growth inhibition.

The target of test [1] is Epidermal growth factor receptor (Homo sapiens, UniProt P00533). The test is described as follows: Inhibition of C-terminal His-tagged and N-terminal GST tagged human EGFR (668 to 1210 residues) expressed in baculovirus infected Sf9 cells using KHKKLAEGSAYEEV substrate peptide and gamma-[32P]ATP.
Sequence of Epidermal growth factor receptor (P00533 whole entry, the tested form may be a part): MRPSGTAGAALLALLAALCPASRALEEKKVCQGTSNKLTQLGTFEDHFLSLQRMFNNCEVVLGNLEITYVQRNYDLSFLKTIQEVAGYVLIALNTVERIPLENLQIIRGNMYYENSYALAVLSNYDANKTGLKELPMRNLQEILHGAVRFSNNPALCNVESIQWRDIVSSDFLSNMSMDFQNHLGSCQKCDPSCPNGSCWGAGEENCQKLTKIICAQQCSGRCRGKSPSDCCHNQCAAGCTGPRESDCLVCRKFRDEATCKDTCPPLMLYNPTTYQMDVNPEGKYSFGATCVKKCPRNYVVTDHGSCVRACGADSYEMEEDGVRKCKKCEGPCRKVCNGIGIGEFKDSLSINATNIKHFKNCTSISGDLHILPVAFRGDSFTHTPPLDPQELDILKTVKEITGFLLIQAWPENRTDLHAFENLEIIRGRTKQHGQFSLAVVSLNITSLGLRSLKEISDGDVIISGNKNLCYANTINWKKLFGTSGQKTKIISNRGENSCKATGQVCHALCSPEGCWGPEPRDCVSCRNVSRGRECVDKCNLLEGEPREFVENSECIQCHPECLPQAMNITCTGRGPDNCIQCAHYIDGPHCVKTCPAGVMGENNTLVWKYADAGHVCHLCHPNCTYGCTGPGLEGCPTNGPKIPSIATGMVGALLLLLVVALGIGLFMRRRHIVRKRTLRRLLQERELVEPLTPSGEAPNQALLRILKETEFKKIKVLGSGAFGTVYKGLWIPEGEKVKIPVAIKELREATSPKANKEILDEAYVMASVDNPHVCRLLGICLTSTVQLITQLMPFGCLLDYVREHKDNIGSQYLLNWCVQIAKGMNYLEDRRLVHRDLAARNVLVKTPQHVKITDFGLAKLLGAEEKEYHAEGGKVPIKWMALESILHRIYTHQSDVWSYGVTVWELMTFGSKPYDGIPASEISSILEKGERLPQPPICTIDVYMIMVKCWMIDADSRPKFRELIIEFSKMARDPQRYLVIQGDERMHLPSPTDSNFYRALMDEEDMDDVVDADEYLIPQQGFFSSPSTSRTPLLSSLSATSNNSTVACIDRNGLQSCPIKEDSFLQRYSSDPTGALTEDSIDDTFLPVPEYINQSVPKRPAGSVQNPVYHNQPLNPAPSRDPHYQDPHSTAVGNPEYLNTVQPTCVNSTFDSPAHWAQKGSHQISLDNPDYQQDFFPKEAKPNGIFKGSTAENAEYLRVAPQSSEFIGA
Test [2] is described as follows: Inhibition of NF-kappaB (unknown origin) expressed in human U937 cells by luciferase reporter gene assay. It is filed as cell-based. Conditions: U-937. Background: In a reporter assay the amount or activity of a reporter protein is the signal.
In test [3] the test system is MDA-MB-231. The test is described as follows: Growth inhibition of human MDA-MB-231 cells incubated for 72 hrs by Cell-titer Glo luciferase-based assay. Conditions: MDA-MB-231, 72 h. It is filed as functional.

In the case of `Fc1cc(F)cc(NC(=S)Nc2ccc3ncnc(Nc4cccc(Br)c4)c3c2)c1`, the figures for the IC50 in test [1] and in test [2] were 60 nM and 300 nM, respectively. In addition, in test [3], the GI50 was 1100 nM.
